From the NIST ThermoML archive (doi:10.1016/j.tca.2018.10.018)

Test: xn = mol fraction of the nth substance listed
Settings: Liquid; for viscosity: Capillary tube (Ostwald / Ubbelohde) method; for mass density: Siemens Coriolis flowmeter

CCCCCCCCCC(=O)OC [methyl decanoate] + CCCCCCC
Settings	mass density, 298.15 K [kg/m3]	mass density, 308.15 K [kg/m3]	mass density, 318.15 K [kg/m3]	viscosity, 298.15 K [mPa·s]	viscosity, 308.15 K [mPa·s]	viscosity, 318.15 K [mPa·s]
100 kPa, x1 = 0.101	706	698	689	0.465	0.394	0.339
100 kPa, x1 = 0.202	730	722	713	0.549	0.454	0.375
100 kPa, x1 = 0.299	753	744	736	0.655	0.52	0.418
100 kPa, x1 = 0.403	773	765	757	0.779	0.613	0.486
100 kPa, x1 = 0.501	792	784	776	0.912	0.716	0.565
100 kPa, x1 = 0.601	810	801	793	1.071	0.843	0.669
100 kPa, x1 = 0.698	826	818	809	1.257	0.999	0.8
100 kPa, x1 = 0.799	841	833	825	1.461	1.173	0.951
100 kPa, x1 = 0.902	855	847	839	1.67	1.351	1.104
100 kPa, x1 = 1	868	860	853	1.934	1.628	1.38
3000 kPa, x1 = 0.101	709	700	692	0.483	0.411	0.355
3000 kPa, x1 = 0.202	734	724	717	0.575	0.475	0.394
3000 kPa, x1 = 0.299	756	747	739	0.686	0.547	0.441
3000 kPa, x1 = 0.403	776	767	760	0.815	0.644	0.514
3000 kPa, x1 = 0.501	795	786	778	0.955	0.752	0.597
3000 kPa, x1 = 0.601	812	804	796	1.119	0.885	0.704
3000 kPa, x1 = 0.698	828	820	812	1.31	1.045	0.84
3000 kPa, x1 = 0.799	843	835	827	1.52	1.224	0.995
3000 kPa, x1 = 0.902	857	849	841	1.735	1.407	1.152
3000 kPa, x1 = 1	870	–	854	1.992	–	1.417
3010 kPa, x1 = 1	–	862	–	–	1.675	–
6000 kPa, x1 = 0.101	712	703	696	0.502	0.428	0.371
6000 kPa, x1 = 0.202	736	727	720	0.599	0.496	0.414
6000 kPa, x1 = 0.299	758	750	742	0.717	0.574	0.465
6000 kPa, x1 = 0.403	779	770	763	0.851	0.676	0.541
6000 kPa, x1 = 0.501	798	789	781	0.996	0.789	0.629
6000 kPa, x1 = 0.601	815	806	799	1.166	0.926	0.74
6000 kPa, x1 = 0.698	831	822	815	1.364	1.091	0.88
6000 kPa, x1 = 0.799	846	837	830	1.58	1.276	1.039
6000 kPa, x1 = 0.902	859	851	843	1.8	1.463	1.199
6000 kPa, x1 = 1	872	864	856	2.058	1.727	1.462
9000 kPa, x1 = 0.101	715	706	699	0.519	0.446	0.386
9000 kPa, x1 = 0.202	739	730	723	0.623	0.518	0.433
9000 kPa, x1 = 0.299	761	752	745	0.746	0.6	0.489
9000 kPa, x1 = 0.403	781	773	765	0.886	0.707	0.569
9000 kPa, x1 = 0.501	800	792	784	1.038	0.825	0.661
9000 kPa, x1 = 0.601	817	809	801	1.214	0.967	0.776
9000 kPa, x1 = 0.698	833	825	817	1.417	1.138	0.919
9000 kPa, x1 = 0.799	848	840	832	1.639	1.327	1.083
9000 kPa, x1 = 0.902	861	853	846	1.865	1.519	1.247
9000 kPa, x1 = 1	874	866	859	2.123	1.779	1.491
12000 kPa, x1 = 0.101	718	709	702	0.537	0.463	0.402
12000 kPa, x1 = 0.202	742	733	726	0.647	0.539	0.452
12000 kPa, x1 = 0.299	764	755	748	0.776	0.626	0.512
12000 kPa, x1 = 0.403	784	775	768	0.922	0.739	0.596
12000 kPa, x1 = 0.501	802	794	787	1.079	0.862	0.692
12000 kPa, x1 = 0.601	819	811	804	1.261	1.009	0.812
12000 kPa, x1 = 0.698	835	827	820	1.471	1.184	0.959
12000 kPa, x1 = 0.799	850	842	834	1.698	1.378	1.126
12000 kPa, x1 = 0.902	863	856	848	1.93	1.575	1.295
12000 kPa, x1 = 1	877	869	861	2.209	1.835	1.534
15000 kPa, x1 = 0.101	720	712	705	0.555	0.48	0.418
15000 kPa, x1 = 0.202	744	736	729	0.671	0.561	0.472
15000 kPa, x1 = 0.299	766	758	751	0.806	0.653	0.536
15000 kPa, x1 = 0.403	786	778	771	0.958	0.771	0.624
15000 kPa, x1 = 0.501	805	797	789	1.121	0.898	0.724
15000 kPa, x1 = 0.601	822	814	806	1.308	1.051	0.847
15000 kPa, x1 = 0.698	837	829	822	1.524	1.23	0.998
15000 kPa, x1 = 0.799	852	844	837	1.757	1.429	1.17
15000 kPa, x1 = 0.902	865	858	850	1.995	1.631	1.343
15000 kPa, x1 = 1	878	871	863	2.272	1.888	1.578
